Results from PubChem BioAssay AID2060485 (Molecular Pharmacology Branch, DTP, NCI, 2025).

Tested on: A375 multi-cell spheroids with HUVEC/MSC, viability
Test: Anticancer human tumor A375 cell line growth inhibition [GQUAD];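 also: spheroids exposed to compounds for seven days before readout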
Conditions: for IC50: curve of first compound; for viability, T/C: stronger effect = lower value
Text: DNA G-quadruplex Stabilizer Agents in Combinations in Complex Spheroids
A high-throughput screen of multi-cell type tumor spheroids was designed to identify active combinations of DNA G-quadruplex stabilizer agents and targeted small molecules. Complex spheroids include a stromal component modeled by human endothelial cells (HUVEC) and fibroblasts modeled by human mesenchymal stem cells (MSCs). The concentration ranges selected for each drug and investigational agent were based upon clinically achievable concentrations if the clinical Cmax of the agent was known.
Compounds. The drugs and investigational agents: pidnarulex (CX-5461; NSC782164), APTO-253 (NSC789042), BRACO-19 (NSC847499), peposertib (NSC802822), ceralasertib (NSC780249), elimusertib (NSC800525), camonsertib (NSC841442), AZD-1390 (NSC803789), olaparib (NSC753686), talazoparib (NSC767125), ART-558 (NSC835418), sotorasib (NSC818433), MRTX-1133 (NSC836407), SN-38 (NSC673596), topotecan (NSC609699), etoposide (NSC141540), doxorubicin (NSC123127), gemcitabine (NSC613327), 5-fluorouracil (NSC19893), paclitaxel (NSC125973), vemurafenib (NSC761431), panobinostat (NSC761190), R-306465 (JNJ-16241199; NSC773264), adavosertib (NSC754352), TP-3654 (NSC805149), carboplatin (NSC241240), KSQ-4279 (NSC840948), and staurosporine (NSC755774) were obtained from the National Cancer Institute (NCI) Developmental Therapeutics Program Chemical Repository (34). The FDA-approved anticancer drug set is available from the NCI Developmental Therapeutics Program. […] The stock solutions were prepared in dimethyl sulfoxide (DMSO, Sigma-Aldrich, St. Louis, MO, cat. D2650) at 800-fold the tested concentration and stored at -70 degrees C prior to their use. All drugs and investigational agents were tested over a range starting from a high concentration at or near the clinical Cmax and decreasing in half-log increments. If the clinical Cmax for an agent had not been determined, the highest concentration tested was 10 microM.
2.3 Cell Culture. All cells were maintained in an incubator at 37 degrees C and 5% CO2 with 95% humidity. The PDC lines were cultured according to standard operating procedures established by the NCI PDMR. All PDCs were thawed and cultured in Matrigel-coated flasks prepared with a working solution of 1X Ham's F-12 nutrient mix, without supplementation (Invitrogen, cat. 11765054), 100 U/mL penicillin-streptomycin (Invitrogen, cat. 15140122), and 2.5% Matrigel (Corning Inc., cat. 354248) for the first three passages. The 857933-349-R-J2-PDC line was cultured in 6C/Colon 1B media, which includes advanced DMEM/F-12 (Thermo Fisher Scientific, cat. 12634028), 10 mM HEPES (Thermo Fisher Scientific, cat. 15630080), 1X GlutaMAX supplement (Thermo Fisher Scientific, cat. 35050061), 0.1 mg/mL primocin (InvivoGen, cat. ant-pm-2), 10% defined fetal bovine serum, heat inactivated (HyClone Laboratories Inc., cat. SH30070.03HI), 50% L-WRN conditioned media (ATCC, cat. CRL-3276), 1.25 mM N-Acetyl-L-cysteine (Sigma-Aldrich, cat. A9165), 10 mM nicotinamide (Sigma-Aldrich, cat. N0636), 1X B-27 supplement (Thermo Fisher Scientific, cat. 17504044), 1X N-2 supplement (Thermo Fisher Scientific, cat. 17502048), 10 microM Y-27632 dihydrochloride (Tocris Bioscience, cat. 1254), and 50 ng/mL human EGF recombinant protein (Thermo Fisher Scientific, cat. PHG0311). The 485176-168-R4-J1-PDC line was cultured in Panc media, which includes all 6C/Colon 1B media components plus 100 ng/mL human FGF-10 (Thermo Fisher Scientific, cat. 100-26), 500 nM SB-431542 (Selleckchem, cat. S1067), and gastrin (Tocris, cat. 3006).
[…]

[1] = second compound 0.0316 µM, first compound 0.0316 µM
[2] = second compound 0.0316 µM, first compound 0.316 µM
[3] = second compound 0.1 µM, first compound 0.0316 µM
[4] = second compound 0.1 µM, first compound 0.316 µM
[5] = second compound 0.316 µM, first compound 0.0316 µM
[6] = second compound 0.316 µM, first compound 0.316 µM
[7] = second compound 1 µM, first compound 0.0316 µM
[8] = second compound 1 µM, first compound 0.316 µM
[9] = second compound 3.16 µM, first compound 0.0316 µM
[10] = second compound 3.16 µM, first compound 0.316 µM
[11] = second compound 10 µM, first compound 0.0316 µM
[12] = second compound 10 µM, first compound 0.316 µM

In the case of `CC[C@@]1(O)C(=O)OCc2c1cc1n(c2=O)Cc2cc3c(CN(C)C)c(O)ccc3nc2-1` + Cc1[nH]c2ccc(F)cc2c1-c1nc2c3cccnc3c3ncccc3c2[nH]1, the IC50 (second compound 0.0316 µM) is reported as 52.8 nM, the IC50 (second compound 0.1 µM) is reported as 53.8 nM and the IC50 (second compound 0.316 µM) is reported as 52.4 nM. For the same molecule, the IC50 (second compound 1 µM) was 46.9 nM, the IC50 (second compound 3.16 µM) was 38.4 nM and the IC50 (second compound 10 µM) was 46.1 nM. It also gave a viability, T/C (second compound 0.0316 µM, first compound 0.000999 µM) of 109%, a viability, T/C (second compound 0.0316 µM, first compound 0.00316 µM) of 110% and a viability, T/C (second compound 0.0316 µM, first compound 0.00999 µM) of 109%. The viability, T/C [1] was 71.6%, the viability, T/C (second compound 0.0316 µM, first compound 0.0999 µM) was 23.4% and the viability, T/C [2] was 12.9%. For the same molecule, the viability, T/C (second compound 0.1 µM, first compound 0.000999 µM) was 98.5%, the viability, T/C (second compound 0.1 µM, first compound 0.00316 µM) was 105% and the viability, T/C (second compound 0.1 µM, first compound 0.00999 µM) was 111%. It also gave a viability, T/C [3] of 73.3%, a viability, T/C (second compound 0.1 µM, first compound 0.0999 µM) of 23.7% and a viability, T/C [4] of 14%. For the same molecule, the viability, T/C (second compound 0.316 µM, first compound 0.000999 µM) was 109%, the viability, T/C (second compound 0.316 µM, first compound 0.00316 µM) was 108% and the viability, T/C (second compound 0.316 µM, first compound 0.00999 µM) was 114%. For the same molecule, the viability, T/C [5] was 69.9%, the viability, T/C (second compound 0.316 µM, first compound 0.0999 µM) was 25.9% and the viability, T/C [6] was 13.6%. For the same molecule, the viability, T/C (second compound 1 µM, first compound 0.000999 µM) was 118%, the viability, T/C (second compound 1 µM, first compound 0.00316 µM) was 107% and the viability, T/C (second compound 1 µM, first compound 0.00999 µM) was 125%. The viability, T/C [7] was 65.4%, the viability, T/C (second compound 1 µM, first compound 0.0999 µM) was 27.4% and the viability, T/C [8] was 13.8%. For the same molecule, the viability, T/C (second compound 3.16 µM, first compound 0.000999 µM) was 92.7%, the viability, T/C (second compound 3.16 µM, first compound 0.00316 µM) was 88.1% and the viability, T/C (second compound 3.16 µM, first compound 0.00999 µM) was 86.4%. For the same molecule, the viability, T/C [9] was 51.6%, the viability, T/C (second compound 3.16 µM, first compound 0.0999 µM) was 30.7% and the viability, T/C [10] was 16.3%. The viability, T/C (second compound 10 µM, first compound 0.000999 µM) was 92.2%, the viability, T/C (second compound 10 µM, first compound 0.00316 µM) was 101% and the viability, T/C (second compound 10 µM, first compound 0.00999 µM) was 105%. For the same molecule, the viability, T/C [11] was 62.9%, the viability, T/C (second compound 10 µM, first compound 0.0999 µM) was 26.1% and the viability, T/C [12] was 14.6%.
Work on `O=C(NO)c1cnc(N2CCN(S(=O)(=O)c3ccc4ccccc4c3)CC2)nc1` + Cc1[nH]c2ccc(F)cc2c1-c1nc2c3cccnc3c3ncccc3c2[nH]1 yielded an IC50 (second compound 0.0316 µM) of 203 nM, an IC50 (second compound 0.1 µM) of 445 nM and an IC50 (second compound 0.316 µM) of 507 nM. For the same molecule, the IC50 (second compound 1 µM) was 447 nM, the IC50 (second compound 3.16 µM) was 202 nM and the IC50 (second compound 10 µM) was 251 nM. The viability, T/C [1] was 104%, the viability, T/C (second compound 0.0316 µM, first compound 0.1 µM) was 113% and the viability, T/C [2] was 13.4%. It also gave a viability, T/C (second compound 0.0316 µM, first compound 1 µM) of 0.27%, a viability, T/C (second compound 0.0316 µM, first compound 3.16 µM) of 0.25% and a viability, T/C (second compound 0.0316 µM, first compound 10 µM) of 0.27%. The viability, T/C [3] was 105%, the viability, T/C (second compound 0.1 µM, first compound 0.1 µM) was 119% and the viability, T/C [4] was 71%. It also gave a viability, T/C (second compound 0.1 µM, first compound 1 µM) of 0.27%, a viability, T/C (second compound 0.1 µM, first compound 3.16 µM) of 0.8% and a viability, T/C (second compound 0.1 µM, first compound 10 µM) of 0.26%. It also gave a viability, T/C [5] of 106%, a viability, T/C (second compound 0.316 µM, first compound 0.1 µM) of 112% and a viability, T/C [6] of 84.5%. The viability, T/C (second compound 0.316 µM, first compound 1 µM) was 0.24%, the viability, T/C (second compound 0.316 µM, first compound 3.16 µM) was 0.19% and the viability, T/C (second compound 0.316 µM, first compound 10 µM) was 0.23%. For the same molecule, the viability, T/C [7] was 109%, the viability, T/C (second compound 1 µM, first compound 0.1 µM) was 106% and the viability, T/C [8] was 71.3%. The viability, T/C (second compound 1 µM, first compound 1 µM) was 0.21%, the viability, T/C (second compound 1 µM, first compound 3.16 µM) was 0.15% and the viability, T/C (second compound 1 µM, first compound 10 µM) was 0.23%. It also gave a viability, T/C [9] of 96.3%, a viability, T/C (second compound 3.16 µM, first compound 0.1 µM) of 89.5% and a viability, T/C [10] of 24.7%. The viability, T/C (second compound 3.16 µM, first compound 1 µM) was 0.19%, the viability, T/C (second compound 3.16 µM, first compound 3.16 µM) was 0.16% and the viability, T/C (second compound 3.16 µM, first compound 10 µM) was 0.22%. It also gave a viability, T/C [11] of 111%, a viability, T/C (second compound 10 µM, first compound 0.1 µM) of 105% and a viability, T/C [12] of 36.2%. The viability, T/C (second compound 10 µM, first compound 1 µM) was 0.21%, the viability, T/C (second compound 10 µM, first compound 3.16 µM) was 0.21% and the viability, T/C (second compound 10 µM, first compound 10 µM) was 0.25%.
